Data on 35 compounds can be found in ChEMBL document CHEMBL4665650, “Towards a TREK-1/2 (TWIK-Related K+ Channel 1 and 2) dual activator tool compound: Multi-dimensional optimization of BL-1249” (Bioorg Med Chem Lett, 2019).

For series [1], the target named is T1, Potassium channel subfamily K member 10 (Homo sapiens, UniProt P57789).
T1 sequence (P57789 whole entry): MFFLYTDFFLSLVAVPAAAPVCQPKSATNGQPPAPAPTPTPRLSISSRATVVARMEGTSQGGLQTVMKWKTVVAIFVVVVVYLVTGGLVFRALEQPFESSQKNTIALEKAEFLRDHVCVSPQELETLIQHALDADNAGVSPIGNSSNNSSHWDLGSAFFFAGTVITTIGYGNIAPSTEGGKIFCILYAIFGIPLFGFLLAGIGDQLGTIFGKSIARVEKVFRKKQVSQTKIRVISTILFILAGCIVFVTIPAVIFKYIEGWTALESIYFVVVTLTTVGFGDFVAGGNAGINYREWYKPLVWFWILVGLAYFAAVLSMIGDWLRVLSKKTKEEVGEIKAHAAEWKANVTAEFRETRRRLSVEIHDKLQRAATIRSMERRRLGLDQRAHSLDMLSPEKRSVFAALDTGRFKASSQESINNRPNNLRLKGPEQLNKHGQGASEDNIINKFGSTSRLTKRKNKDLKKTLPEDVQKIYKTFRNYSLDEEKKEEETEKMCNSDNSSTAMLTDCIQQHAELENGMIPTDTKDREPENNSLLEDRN
Nature of the series: Activation of human TREK2 by thallium flux mobilization assay.

A short description of series [2]: Fraction unbound in human plasma. In kind it is ADME, cell-free.
In series [3] the target is T2, Potassium channel subfamily K member 2 (Homo sapiens) (UniProt O95069).
T2 sequence (whole entry): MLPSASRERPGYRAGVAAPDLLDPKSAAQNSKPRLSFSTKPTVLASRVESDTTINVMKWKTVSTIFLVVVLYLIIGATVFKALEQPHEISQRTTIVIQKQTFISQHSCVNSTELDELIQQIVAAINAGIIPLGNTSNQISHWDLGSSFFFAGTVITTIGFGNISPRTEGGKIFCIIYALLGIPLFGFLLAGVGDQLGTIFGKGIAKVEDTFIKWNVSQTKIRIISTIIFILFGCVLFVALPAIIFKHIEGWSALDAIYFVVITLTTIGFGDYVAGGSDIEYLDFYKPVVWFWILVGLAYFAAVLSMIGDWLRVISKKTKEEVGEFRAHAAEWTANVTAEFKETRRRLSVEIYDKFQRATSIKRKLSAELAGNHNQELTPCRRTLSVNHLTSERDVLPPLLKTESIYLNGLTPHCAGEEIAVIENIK
In words: Activation of human TREK1 at 30 uM by thallium flux mobilization assay relative to control.

Series [4] in a line: Fraction unbound in mouse plasma. The class given is ADME, cell-free.
Series [5] can be described thus: Fraction unbound in rat plasma. In kind it is ADME, cell-free.
Series [6] concerns the target T3, Potassium channel subfamily K member 10 (Homo sapiens) (UniProt P57789).
T3 sequence (whole entry): T1 sequence (P57789 whole entry)
In words: Activation of human TREK2 at 30 uM by thallium flux mobilization assay relative to control.

Series [7] deals with T4, Potassium channel subfamily K member 2 (Homo sapiens, UniProt O95069).
T4 sequence (O95069 whole entry): T2 sequence (whole entry)
In words: Activation of human TREK1 by thallium flux mobilization assay.

Series [8] addresses T3, Potassium channel subfamily K member 10 (Homo sapiens). Nature of the series: Activation of human TREK2 at 10 uM by thallium flux mobilization assay relative to control.
The target in series [9] is T2, Potassium channel subfamily K member 2 (Homo sapiens). In words: Activation of human TREK1 at 10 uM by thallium flux mobilization assay relative to control.

As a reminder, the EC50 is the concentration needed to bring the measured effect to its halfway point. The term fraction unbound denotes free concentration divided by total concentration. The low end stands for extensive binding, the high end for weak binding.

Where only a bound is given, the exact number is not on record here.

Turning to `O=C(Nc1ccc(Br)cc1C(=O)O)c1ccc(SC(F)(F)F)cc1`, the values for the EC50 in series [1] and in series [7] were 7.7 µM and 5.9 µM, respectively. For the same compound, the fraction unbound in [2] worked out at 0.003; in [4], 0.029; in [5], 0.013. Moreover, the Activity in [3] (filed as activator) turned out to be 114%; in series [6] (filed as activator), 101%.

In the case of `O=C(Nc1ccccc1C(=O)O)c1ccc(SC(F)(F)F)cc1`, the EC50 worked out at 5 µM in series [1] and 12.8 µM in series [7]. In addition, the fraction unbound in series [2] is 0.026; in [4], 0.081; in series [5] it was 0.04. The Activity is 50% in [3] (filed as activator) and 17% in [6].

On to `O=C(O)c1cccc(NC(=O)c2ccc(C(F)(F)F)cc2)c1`, for which the Activity in [3] is -11%; in series [6] it was 0%.

Turning to `COc1ccc(NC(=O)c2ccc(SC(F)(F)F)cc2)c(C(=O)O)c1`, the EC50 was over 30 µM in [1] and 20.2 µM in [7]. Moreover, the Activity in series [3] (filed as activator) stood at 50%; in series [6], 31%.

For the compound `O=C(Nc1ccc([N+](=O)[O-])cc1C(=O)O)c1ccc(SC(F)(F)F)cc1`, the figures for the EC50 in [1] and in [7] were 26.5 µM and 13.7 µM, respectively. In addition, the Activity in series [3] (filed as activator) is 56%; in [6] (filed as activator) it was 65%.

Consider `O=C(Nc1cnncc1C(=O)O)c1ccc(SC(F)(F)F)cc1`, for which the Activity in [3] and in series [6] was 1% each time.

In the case of `O=C(Nc1ccoc1C(=O)O)c1ccc(SC(F)(F)F)cc1`, the Activity is 8% in series [3] and 5% in series [6].

Consider `O=C(Nc1ccc2c(c1)CCCC2)c1ccccc1-c1nnn[nH]1`, for which the Activity turned out to be 1% in series [8] and 0% in series [9].

Consider `O=C(O)Cc1cccc(NC(=O)c2ccc(C(F)(F)F)cc2)c1`, for which the Activity is 0% in series [3] and -1% in series [6].

On to `Cc1sc(NC(=O)c2ccc(SC(F)(F)F)cc2)c(C(=O)O)c1C`, for which the EC50 is under 3.6 µM in series [1] and under 3.1 µM in [7]. In addition, the values for the Activity in [3] and in series [6] were 31% and 12%, respectively.

Regarding `O=C(Nc1sccc1C(=O)O)c1ccc(SC(F)(F)F)cc1`, the EC50 in series [1] and in [7] was over 30 µM each time. The Activity in series [3] (filed as activator) was determined as 58%; in [6], 28%.

`O=C(Nc1ccccc1-c1nnn[nH]1)c1cccc2c1CCCC2`: the results for the Activity in [8] and in [9] were 2% and 6%, respectively.

Take `O=C(Nc1ccccc1C(=O)O)c1cccc(SC(F)(F)F)c1`: the Activity in [3] was 40%; in series [6] it was 17%.

`O=C(O)Cc1ccccc1NC(=O)c1ccc(C(F)(F)F)cc1`: the Activity in [3] was -6%; in [6] it was 0%.

For `O=C(Nc1ncncc1C(=O)O)c1ccc(SC(F)(F)F)cc1`, the figures for the Activity in series [3] and in series [6] were -4% and 0%, respectively.

As to `O=C(Nc1ccc(Cl)cc1C(=O)O)c1ccc(SC(F)(F)F)cc1`, the figures for the EC50 in series [1] and in [7] were 6.8 µM and 3.8 µM, respectively. Moreover, the Activity stood at 69% in [3] (filed as activator) and 76% in series [6] (filed as activator).

`O=C(Nc1sc(-c2ccccc2)cc1C(=O)O)c1ccc(SC(F)(F)F)cc1`: the results for the EC50 in series [1] and in series [7] were over 30 µM and 22.4 µM, respectively. The Activity amounted to 83% in series [3] (filed as activator) and 49% in [6] (filed as activator).

Regarding `O=C(Nc1ccccc1C(=O)O)c1ccc(C(F)(F)F)cc1`, the figures for the Activity in [3] and in series [6] were 28% and 12%, respectively.

For `O=C(O)c1ccccc1NC(=O)c1ccccc1C(F)(F)F`, the Activity in series [3] was 1%; in series [6], -3%.

In the case of `O=C(Nc1nccnc1C(=O)O)c1ccc(SC(F)(F)F)cc1`, the Activity in [3] is -6%; in series [6], 0%.

As to `COc1ccc(C(=O)O)c(NC(=O)c2ccc(SC(F)(F)F)cc2)c1`, the EC50 was 28.5 µM in [1] and 16.5 µM in series [7]. The Activity worked out at 52% in [3] (filed as activator) and 27% in series [6].

Take `O=C(Nc1cc(Cl)ccc1C(=O)O)c1ccc(SC(F)(F)F)cc1`: the concentration giving a half-maximal response (EC50) in series [1] turned out to be 7.5 µM; in series [7], 4.4 µM. Also, the Activity turned out to be 66% in series [3] (filed as activator) and 73% in series [6] (filed as activator).

`O=C(Nc1ccccc1C(=O)O)c1cccc(C(F)(F)F)c1`: the Activity in [3] turned out to be 28%; in series [6], 12%.

Regarding `O=C(O)c1cccc(NC(=O)c2cccc(C(F)(F)F)c2)c1`, the Activity in series [3] is -10%; in series [6] it was -3%.

`O=C(O)Cc1ccccc1NC(=O)c1ccccc1C(F)(F)F`: the Activity in [3] was 4%; in series [6], -1%.

For the compound `O=C(O)Cc1ccccc1NC(=O)c1cccc(C(F)(F)F)c1`, the Activity in series [3] worked out at 5%; in series [6] it was 2%.

Regarding `O=C(Nc1ccccc1-c1nnn[nH]1)c1ccc2c(c1)CCCC2`, the Activity amounted to 21% in [8] and 24% in [9]. The response in [7] was half-maximal at 13.1 µM (EC50).

As to `O=C(Nc1cc(Br)ccc1C(=O)O)c1ccc(SC(F)(F)F)cc1`, the values for the 50% effective concentration (EC50) in series [1] and in [7] were 5.9 µM and 4.3 µM, respectively. The Activity was found to be 76% in series [3] (filed as activator) and 74% in series [6] (filed as activator).

With `O=C(O)Cc1cccc(NC(=O)c2cccc(C(F)(F)F)c2)c1`, the Activity in series [3] was -1%; in [6], 1%.

As to `O=C(Nc1ccc(OC(F)(F)F)cc1C(=O)O)c1ccc(SC(F)(F)F)cc1`, the results for the EC50 in [1] and in series [7] were 5.6 µM and 4.6 µM, respectively. Moreover, the figures for the Activity in series [3] (filed as activator) and in [6] (filed as activator) were 57% and 60%, respectively.

For the compound `O=C(O)c1cccc(NC(=O)c2ccccc2C(F)(F)F)c1`, the Activity in series [3] was -14%; in series [6], -1%.

As for `O=C(Nc1cccc2c1CCCC2)c1ccccc1-c1nnn[nH]1`, the Activity in [8] is 1%; in [9], 0%.

For the compound `O=C(Nc1ncccc1C(=O)O)c1ccc(SC(F)(F)F)cc1`, the Activity was -4% in series [3] and 1% in series [6].

Turning to `O=C(O)Cc1cccc(NC(=O)c2ccccc2C(F)(F)F)c1`, the Activity was 2% in [3] and 0% in [6].

With `O=C(Nc1ccc(F)cc1C(=O)O)c1ccc(SC(F)(F)F)cc1`, the EC50 in series [1] is over 30 µM; in [7], 9.5 µM. Also, the values for the Activity in [3] (filed as activator) and in [6] (filed as activator) were 54% and 43%, respectively.
